{
  "source": "patent US6541045B1",
  "about": "“Herbal composition and method for combating inflammation” (Nutraceutical Corporation, priority 2002, dated 2003)",
  "biological_target": "COX-1 (Homo sapiens, UniProt P23219)",
  "sequence (P23219 24-599)": "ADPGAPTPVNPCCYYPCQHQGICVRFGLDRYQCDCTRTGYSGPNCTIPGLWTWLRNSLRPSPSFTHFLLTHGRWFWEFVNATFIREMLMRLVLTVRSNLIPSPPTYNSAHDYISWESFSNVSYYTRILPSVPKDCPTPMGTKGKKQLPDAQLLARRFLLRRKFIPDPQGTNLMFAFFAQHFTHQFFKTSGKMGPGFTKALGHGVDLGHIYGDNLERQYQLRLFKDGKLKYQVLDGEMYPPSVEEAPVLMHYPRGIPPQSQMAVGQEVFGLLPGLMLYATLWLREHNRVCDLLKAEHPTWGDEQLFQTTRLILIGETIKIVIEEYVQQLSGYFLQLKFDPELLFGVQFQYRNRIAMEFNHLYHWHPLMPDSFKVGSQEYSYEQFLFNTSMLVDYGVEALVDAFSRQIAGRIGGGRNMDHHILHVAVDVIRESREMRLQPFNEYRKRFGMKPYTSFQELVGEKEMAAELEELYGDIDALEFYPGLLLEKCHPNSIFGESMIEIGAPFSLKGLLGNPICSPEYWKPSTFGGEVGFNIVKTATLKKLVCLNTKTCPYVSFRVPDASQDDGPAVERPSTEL",
  "assay": "COX-1 inhibition, resveratrol versus Japanese knotweed",
  "type": "biochemical",
  "details": "pure resveratrol (99%) compared with Japanese knotweed",
  "data": [
    {"smiles": "Oc1ccc(C=Cc2cc(O)cc(O)c2)cc1", "note": "[resveratrol]", "values": [
      {"measurement": "effectiveness for COX-1", "result": "just as effective"}
    ]}
  ]
}
